Results as given in PubChem BioAssay (NCI).
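Each compound was tested at five concentrations against cells in 96-well plates for 48 hours. TGI denotes the concentration required for complete inhibition of growth.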

How the values were obtained:
Experiment in all cases: NCI anticancer screen, dose series, 48 h
[1] = system: 786-0 renal
[2] = system: A498 renal
[3] = system: A549 NSCLC
[4] = system: ACHN renal
[5] = system: CAKI-1 renal
[6] = system: CCRF-CEM leukemia
[7] = system: COLO 205 colon
[8] = system: DLD-1 colon
[9] = system: DMS 273 small cell lung
[10] = system: EKVX NSCLC
[11] = system: HCC-2998 colon
[12] = system: HCT-116 colon
[13] = system: HCT-15 colon
[14] = system: HL-60(TB) leukemia
[15] = system: HOP-18 NSCLC
[16] = system: HOP-62 NSCLC
[17] = system: HOP-92 NSCLC
[18] = system: HT29 colon
[19] = system: IGROV1 ovarian
[20] = system: KM12 colon
[21] = system: KM20L2 colon
[22] = system: LOX IMVI melanoma
[23] = system: LXFL 529 NSCLC
[24] = system: M14 melanoma
[25] = system: M19-MEL melanoma
[26] = system: MALME-3M melanoma
[27] = system: MOLT-4 leukemia
[28] = system: NCI-H226 lung
[29] = system: NCI-H23 lung
[30] = system: NCI-H460 lung
[31] = system: NCI-H522 lung
[32] = system: OVCAR-3 ovarian
[33] = system: OVCAR-4 ovarian
[34] = system: OVCAR-5 ovarian
[35] = system: OVCAR-8 ovarian
[36] = system: RPMI-8226 leukemia
[37] = system: RXF 393 renal
[38] = system: RXF-631 renal
[39] = system: SF-268 CNS
[40] = system: SF-295 CNS
[41] = system: SK-MEL-2 melanoma
[42] = system: SK-MEL-28 melanoma
[43] = system: SK-MEL-5 melanoma
[44] = system: SK-OV-3 ovarian
[45] = system: SN12C renal
[46] = system: SNB-19 CNS
[47] = system: SNB-75 CNS
[48] = system: SNB-78 CNS
[49] = system: SR leukemia
[50] = system: SW-620 colon
[51] = system: TK-10 renal
[52] = system: U251 CNS
[53] = system: UACC-257 melanoma
[54] = system: UACC-62 melanoma
[55] = system: UO-31 renal
[56] = system: DMS 114 small cell lung
[57] = system: K-562 leukemia
[58] = system: SF-539 CNS

SMILES: NC(CCc1nc(-c2ccc(Cl)cc2)cs1)C(=O)O (centres undefined)
- TGI [1]: > 100 µM
- TGI [2]: > 100 µM
- TGI [3]: > 100 µM
- TGI [4]: > 100 µM
- TGI [5]: > 100 µM
- TGI [6]: > 100 µM
- TGI [7]: > 100 µM
- TGI [8]: > 100 µM
- TGI [9]: > 100 µM
- TGI [10]: > 100 µM
- TGI [11]: > 100 µM
- TGI [12]: > 100 µM
- TGI [13]: > 100 µM
- TGI [14]: > 100 µM
- TGI [15]: > 100 µM
- TGI [16]: > 100 µM
- TGI [17]: > 100 µM
- TGI [18]: > 100 µM
- TGI [19]: > 100 µM
- TGI [20]: > 100 µM
- TGI [21]: > 100 µM
- TGI [22]: > 100 µM
- TGI [23]: > 100 µM
- TGI [24]: > 100 µM
- TGI [25]: > 100 µM
- TGI [26]: > 100 µM
- TGI [27]: > 100 µM
- TGI [28]: > 100 µM
- TGI [29]: > 100 µM
- TGI [30]: > 100 µM
- TGI [31]: > 100 µM
- TGI [32]: > 100 µM
- TGI [33]: > 100 µM
- TGI [34]: > 100 µM
- TGI [35]: > 100 µM
- TGI [36]: > 100 µM
- TGI [37]: > 100 µM
- TGI [38]: > 100 µM
- TGI [39]: > 100 µM
- TGI [40]: > 100 µM
- TGI [41]: > 100 µM
- TGI [42]: > 100 µM
- TGI [43]: > 100 µM
- TGI [44]: > 100 µM
- TGI [45]: > 100 µM
- TGI [46]: > 100 µM
- TGI [47]: > 100 µM
- TGI [48]: > 100 µM
- TGI [49]: > 100 µM
- TGI [50]: > 100 µM
- TGI [51]: > 100 µM
- TGI [52]: > 100 µM
- TGI [53]: > 100 µM
- TGI [54]: > 100 µM
- TGI [55]: > 100 µM

SMILES: FC(F)(F)c1ccc(C2SCc3nc4ccccc4n32)cc1 (centres undefined)
- TGI [1]: > 100 µM
- TGI [2]: > 100 µM
- TGI [3]: > 100 µM
- TGI [4]: > 100 µM
- TGI [6]: > 100 µM
- TGI [7]: > 100 µM
- TGI [8]: > 100 µM
- TGI [56]: > 100 µM
- TGI [9]: > 100 µM
- TGI [10]: > 100 µM
- TGI [11]: > 100 µM
- TGI [12]: > 100 µM
- TGI [14]: 96.2 µM
- TGI [15]: > 100 µM
- TGI [17]: 48.8 µM
- TGI [18]: > 100 µM
- TGI [19]: > 100 µM
- TGI [57]: > 100 µM
- TGI [20]: > 100 µM
- TGI [23]: > 100 µM
- TGI [25]: > 100 µM
- TGI [26]: > 100 µM
- TGI [27]: > 100 µM
- TGI [28]: > 100 µM
- TGI [29]: > 100 µM
- TGI [34]: > 100 µM
- TGI [35]: > 100 µM
- TGI [36]: > 100 µM
- TGI [37]: > 100 µM
- TGI [38]: > 100 µM
- TGI [39]: > 100 µM
- TGI [40]: > 100 µM
- TGI [58]: > 100 µM
- TGI [41]: > 100 µM
- TGI [42]: > 100 µM
- TGI [43]: > 100 µM
- TGI [44]: > 100 µM
- TGI [45]: > 100 µM
- TGI [46]: > 100 µM
- TGI [47]: > 100 µM
- TGI [48]: > 100 µM
- TGI [49]: > 100 µM
- TGI [50]: > 100 µM
- TGI [51]: > 100 µM
- TGI [52]: > 100 µM
- TGI [53]: > 100 µM
- TGI [54]: > 100 µM
- TGI [55]: > 100 µM

SMILES: CC(=O)C(CN(C(C)C)C(C)C)C(c1ccccc1)c1c(O)c2ccccc2oc1=O (centres undefined)
- TGI [1]: > 100 µM
- TGI [2]: > 100 µM
- TGI [3]: > 100 µM
- TGI [4]: > 100 µM
- TGI [5]: > 100 µM
- TGI [6]: > 100 µM
- TGI [7]: > 100 µM
- TGI [8]: > 100 µM
- TGI [56]: > 100 µM
- TGI [9]: > 100 µM
- TGI [10]: > 100 µM
- TGI [12]: > 100 µM
- TGI [13]: > 100 µM
- TGI [14]: > 100 µM
- TGI [15]: > 100 µM
- TGI [16]: > 100 µM
- TGI [18]: > 100 µM
- TGI [19]: > 100 µM
- TGI [57]: > 100 µM
- TGI [20]: > 100 µM
- TGI [21]: > 100 µM
- TGI [22]: > 100 µM
- TGI [23]: > 100 µM
- TGI [24]: > 100 µM
- TGI [25]: > 100 µM
- TGI [26]: > 100 µM
- TGI [27]: > 100 µM
- TGI [28]: > 100 µM
- TGI [29]: > 100 µM
- TGI [30]: > 100 µM
- TGI [31]: > 100 µM
- TGI [32]: > 100 µM
- TGI [33]: > 100 µM
- TGI [34]: > 100 µM
- TGI [35]: > 100 µM
- TGI [36]: > 100 µM
- TGI [37]: > 100 µM
- TGI [38]: > 100 µM
- TGI [39]: > 100 µM
- TGI [40]: > 100 µM
- TGI [58]: > 100 µM
- TGI [41]: > 100 µM
- TGI [42]: > 100 µM
- TGI [43]: > 100 µM
- TGI [44]: > 100 µM
- TGI [45]: > 100 µM
- TGI [46]: > 100 µM
- TGI [47]: > 100 µM
- TGI [48]: > 100 µM
- TGI [49]: > 100 µM
- TGI [50]: > 100 µM
- TGI [51]: > 100 µM
- TGI [52]: > 100 µM
- TGI [53]: > 100 µM
- TGI [54]: > 100 µM
- TGI [55]: > 100 µM
